Values quoted from earlier work in patent publication US20130164335A1, “METHODS AND COMPOSITIONS FOR CELLULAR DRUG RELEASE” (NATIONAL HEALTH RESEARCH INSTITUTES, priority 2011, published 2013).

Settings: after the first dosage; from a report

## Cc1cc2c(s1)Nc1ccccc1N=C2N1CCN(C)CC1 [OLZ, Olanzapine]
  time to reach steady-state: one week
